{
  "source": "ChEMBL document CHEMBL1201862",
  "about": "“PubChem BioAssay data set” (2004)",
  "key": {"Escherichia coli [1]": {"tested_on": "Escherichia coli", "assay": "microbe, parasite or virus in culture"}, "[2]": {"assay": "blockers of HIV-1 ZM109 envelope-driven cell-cell fusion – HeLa effector, CEM target cells, luciferase, cherry-pick, dose response (AID 652058)", "assay_type": "functional, cell-based"}, "[3]": {"assay": "blockers of HIV-1 envelope-mediated cell-cell fusion – cherry-pick, dose response (AID 652057)", "assay_type": "functional, cell-based"}, "[4]": {"assay": "HIV-1 AD8 envelope cell-cell fusion blockers – cherry-pick, dose response (AID 652062);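 further: potency is for inhibitors of fusion seen as a drop in luminescence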", "assay_type": "functional, cell-based"}, "[5]": {"assay": "viability loss in CEM21 cells – cell-based, CellTiter-Glo luminescence, cherry-picked, cytotoxicity control for viral fusion inhibitor project, dose response (AID 652042);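 further: potency for signal decrease meaning cytotoxicity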", "assay_type": "functional"}, "CAAX prenyl protease 2": {"biological_target": "CAAX prenyl protease 2 (Homo sapiens, UniProt Q9Y256)", "sequence (Q9Y256 whole entry)": "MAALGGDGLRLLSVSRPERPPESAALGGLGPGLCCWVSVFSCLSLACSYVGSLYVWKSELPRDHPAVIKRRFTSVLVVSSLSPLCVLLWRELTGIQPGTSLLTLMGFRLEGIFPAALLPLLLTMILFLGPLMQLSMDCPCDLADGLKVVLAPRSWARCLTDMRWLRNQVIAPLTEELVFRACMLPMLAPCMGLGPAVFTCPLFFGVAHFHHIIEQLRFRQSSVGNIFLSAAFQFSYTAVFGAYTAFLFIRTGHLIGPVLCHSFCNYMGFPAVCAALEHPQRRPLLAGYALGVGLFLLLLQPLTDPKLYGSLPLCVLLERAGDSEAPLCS", "assay": "inhibition of Ras-converting CAAX protease Rce1 – biochemical, yeast membranes, quenched-peptide fluorescence, cherry-pick, dose response (AID 588849)"}, "INS1": {"tested_on": "INS1", "assay": "INS-1E survival protection against cytokine death – cell-based, luminescence, retest, dose response (AID 449756);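 further: cell death triggered by IL-1 beta plus TNF-alpha plus IFN-gamma mixture; protective hits raise ATP signal compared with cytokine alone wells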", "assay_type": "functional", "settings": "Rattus norvegicus"}, "[6]": {"assay": "off-target signal loss in HeLa-CEM21 co-culture – HeLa F-luc CTL cells, cherry-picked, counter-screen for HIV-1 Env fusion inhibitor project, dose response (AID 652040);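 further: potency for signal decrease marking cytotoxic or nonspecific inhibition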", "assay_type": "functional, cell-based"}, "[7]": {"biological_target": "Disintegrin and metalloproteinase domain-containing protein 17 (Homo sapiens, UniProt P78536)", "sequence (P78536 whole entry, the tested form may be a part)": "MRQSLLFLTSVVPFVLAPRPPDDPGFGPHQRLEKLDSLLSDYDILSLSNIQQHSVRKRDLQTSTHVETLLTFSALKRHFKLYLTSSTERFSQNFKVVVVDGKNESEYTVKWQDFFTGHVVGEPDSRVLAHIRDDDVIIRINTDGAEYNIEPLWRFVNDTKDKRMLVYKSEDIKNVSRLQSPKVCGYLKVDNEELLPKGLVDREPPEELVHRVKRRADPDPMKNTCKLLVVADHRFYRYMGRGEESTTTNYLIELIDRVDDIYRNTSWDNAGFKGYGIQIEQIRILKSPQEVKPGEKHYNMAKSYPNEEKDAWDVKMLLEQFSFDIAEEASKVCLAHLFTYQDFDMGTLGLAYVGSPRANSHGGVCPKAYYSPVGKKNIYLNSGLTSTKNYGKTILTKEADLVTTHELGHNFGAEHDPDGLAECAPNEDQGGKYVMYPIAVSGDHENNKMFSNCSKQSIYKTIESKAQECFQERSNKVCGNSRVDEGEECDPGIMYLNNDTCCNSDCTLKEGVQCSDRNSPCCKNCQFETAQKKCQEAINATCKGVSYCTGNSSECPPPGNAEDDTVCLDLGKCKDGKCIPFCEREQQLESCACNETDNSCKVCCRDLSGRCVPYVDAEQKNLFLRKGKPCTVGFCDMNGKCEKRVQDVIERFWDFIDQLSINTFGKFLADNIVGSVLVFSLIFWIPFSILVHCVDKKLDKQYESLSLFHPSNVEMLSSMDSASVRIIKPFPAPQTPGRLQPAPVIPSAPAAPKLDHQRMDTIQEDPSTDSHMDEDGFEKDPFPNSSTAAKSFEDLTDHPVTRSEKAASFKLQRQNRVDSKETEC", "assay": "inhibition of ADAM17 substrate cleavage – biochemical, quenched FRET substrate, counter-screen for ADAM10 exosite inhibitor project, dose response (AID 743253)"}, "[8]": {"assay": "potency of ADAM10 substrate cleavage blockers – biochemical, QFRET, dose response (AID 743254);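 further: ADAM10 enzyme with the DM2 quenched FRET peptide as substrate; EDANS fluorescence gain as the protease cuts the substrate; inhibitor potency against ADAM10 proteolytic activity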"}, "Escherichia coli [9]": {"tested_on": "Escherichia coli", "assay": "microbe, parasite or virus in culture", "remark": "listed apart in the source"}, "[10]": {"biological_target": "Glyceraldehyde-3-phosphate dehydrogenase (Homo sapiens, UniProt P04406)", "sequence (P04406 whole entry)": "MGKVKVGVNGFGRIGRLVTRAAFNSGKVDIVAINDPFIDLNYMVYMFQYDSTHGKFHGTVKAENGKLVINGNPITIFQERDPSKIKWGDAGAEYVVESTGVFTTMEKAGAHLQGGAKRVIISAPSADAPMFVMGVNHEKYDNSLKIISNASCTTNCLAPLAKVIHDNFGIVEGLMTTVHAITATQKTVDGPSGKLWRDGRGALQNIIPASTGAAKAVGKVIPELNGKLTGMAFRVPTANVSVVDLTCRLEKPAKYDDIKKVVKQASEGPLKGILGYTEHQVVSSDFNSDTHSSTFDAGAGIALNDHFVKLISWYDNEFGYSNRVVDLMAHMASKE"}, "[11]": {"biological_target": "T1, Tyrosine-protein phosphatase non-receptor type 7 (Homo sapiens, UniProt P35236)", "T1 sequence (P35236 whole entry)": "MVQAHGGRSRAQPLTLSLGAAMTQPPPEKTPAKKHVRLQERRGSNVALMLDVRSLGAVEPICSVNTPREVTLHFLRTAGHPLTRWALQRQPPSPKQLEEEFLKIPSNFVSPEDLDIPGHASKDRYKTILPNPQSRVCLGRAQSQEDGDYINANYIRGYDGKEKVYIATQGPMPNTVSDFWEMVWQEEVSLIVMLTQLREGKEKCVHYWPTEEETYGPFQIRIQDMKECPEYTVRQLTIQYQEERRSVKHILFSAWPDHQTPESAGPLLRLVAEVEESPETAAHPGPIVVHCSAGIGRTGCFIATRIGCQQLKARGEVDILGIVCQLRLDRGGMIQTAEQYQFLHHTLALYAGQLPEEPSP", "assay_type": "functional"}, "[12]": {"biological_target": "T2, Dual specificity protein phosphatase 6 (Rattus norvegicus, UniProt Q64346)", "T2 sequence (Q64346 whole entry)": "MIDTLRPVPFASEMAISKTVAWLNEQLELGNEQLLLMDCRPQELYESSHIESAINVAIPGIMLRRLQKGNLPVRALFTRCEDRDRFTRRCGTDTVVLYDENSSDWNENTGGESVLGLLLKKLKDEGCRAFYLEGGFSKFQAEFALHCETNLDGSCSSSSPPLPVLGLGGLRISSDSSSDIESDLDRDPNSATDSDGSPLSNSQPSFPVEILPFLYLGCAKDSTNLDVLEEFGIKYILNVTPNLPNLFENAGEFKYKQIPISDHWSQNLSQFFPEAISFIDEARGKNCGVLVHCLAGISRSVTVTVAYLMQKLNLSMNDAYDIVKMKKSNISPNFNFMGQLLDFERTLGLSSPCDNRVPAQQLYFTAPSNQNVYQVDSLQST"}, "[13]": {"biological_target": "T2, Dual specificity protein phosphatase 6", "assay_type": "functional"}, "Jurkat": {"tested_on": "Jurkat", "assay": "blockers of NF-kB activation in T cells – Jurkat, luciferase reporter, luminescence, B- and T-cell, dose response (AID 489004);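 further: NF-kB luciferase reporter Jurkat cells stimulated with PMA plus ionomycin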", "assay_type": "functional, cell-based", "settings": "Homo sapiens"}, "cells": {"assay": "cells", "assay_type": "functional, cell-based", "settings": "HEK-CNG"}, "Galanin receptor type 3": {"biological_target": "Galanin receptor type 3 (Homo sapiens, UniProt O60755)", "sequence (O60755 whole entry)": "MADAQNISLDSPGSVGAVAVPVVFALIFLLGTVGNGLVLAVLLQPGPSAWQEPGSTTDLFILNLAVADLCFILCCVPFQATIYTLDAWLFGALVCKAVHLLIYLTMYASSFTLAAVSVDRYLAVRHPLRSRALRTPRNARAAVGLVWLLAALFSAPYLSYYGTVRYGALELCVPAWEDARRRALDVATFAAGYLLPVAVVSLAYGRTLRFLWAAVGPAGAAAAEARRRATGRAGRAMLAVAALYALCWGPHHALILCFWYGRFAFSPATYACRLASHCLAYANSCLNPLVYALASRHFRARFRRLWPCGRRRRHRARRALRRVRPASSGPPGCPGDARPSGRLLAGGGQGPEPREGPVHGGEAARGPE", "assay": "Fluorescence-based cell-based primary high throughput dose response assay to identify antagonists of the Galanin Receptor 3 (GalR3).", "assay_type": "functional"}, "[14]": {"assay": "HEK-293T viability loss, compound-treated – cell-based, uHTS hits, cytotoxicity control for B/T-cell NF-kB inhibitor project, dose response (AID 489019);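 further: IC50 reflects cytotoxicity as loss of cell viability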", "assay_type": "functional"}},
  "note": "The source made the active and inactive calls.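 Wherever EC50 is given: target is galanin receptor GalR3 read with a cAMP biosensor in HEK293 cells.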",
  "data": [
    {"smiles": "CO[C@H]1/C=C\\O[C@@]2(C)Oc3c(C)c(O)c4c(O)c(c5c(c4c3C2=O)=NC2(CCN(CC(C)C)CC2)N=5)NC(=O)/C(C)=C\\C=C/[C@H](C)[C@H](O)[C@@H](C)[C@@H](O)[C@@H](C)[C@H](OC(C)=O)[C@@H]1C", "values": [
      {"measurement": "AC50", "setting": "Escherichia coli [1]", "value": "15.9 µM (active)"}
    ]},
    {"smiles": "COc1ccccc1NC(=O)CN(c1ccc(C23CC4CC(CC(C4)C2)C3)cc1)S(C)(=O)=O", "values": [
      {"measurement": "AC50", "setting": "[2]", "value": "3.45 µM (active)"},
      {"measurement": "AC50", "setting": "[3]", "value": "4.53 µM (active)"},
      {"measurement": "AC50", "setting": "[4]", "value": "8.59 µM (active)"},
      {"measurement": "AC50", "setting": "[5]", "value": "47 µM (active)"},
      {"measurement": "AC50", "setting": "CAAX prenyl protease 2", "value": "40.9 µM (active)"},
      {"measurement": "AC50", "setting": "INS1", "value": "4.49 µM (active)"},
      {"measurement": "AC50", "setting": "[6]", "value": "8.12 µM (active)"},
      {"measurement": "IC50", "setting": "[7]", "value": "> 69.5 µM (inactive)"},
      {"measurement": "IC50", "setting": "[8]", "value": "> 69.5 µM (inactive)"}
    ]},
    {"smiles": "CCOC(=O)C(NC(C)=O)(Nc1ccc(F)cc1)C(F)(F)F", "note": "(stereo unspecified)", "values": [
      {"measurement": "AC50", "setting": "Escherichia coli [9]", "value": "36.2 µM (active)"},
      {"measurement": "AC50", "setting": "Escherichia coli [1]", "value": "74.8 µM (active)"}
    ]},
    {"smiles": "Cn1ncc(Cl)c1C(=O)NCc1ccc(Cl)cc1", "values": [
      {"measurement": "AC50", "setting": "Escherichia coli [9]", "value": "22.7 µM (active)"}
    ]},
    {"smiles": "COc1ccc(-n2c(=O)nc(NCCc3cccc(Cl)c3)[nH]c2=O)cc1", "values": [
      {"measurement": "IC50", "setting": "[10]", "value": "> 100 µM (not active)"},
      {"measurement": "IC50", "setting": "[11]", "value": "> 100 µM (not active)"},
      {"measurement": "IC50", "setting": "[12]", "value": "> 100 µM (inactive)"},
      {"measurement": "IC50", "setting": "[13]", "value": "> 100 µM (inactive)"}
    ]},
    {"smiles": "COc1cc2c(cc1OC)[C@@H]1C(=O)c3ccc4c(c3O[C@@H]1CO2)C[C@H](C(C)C)O4", "values": [
      {"measurement": "IC50", "setting": "Jurkat", "value": "> 80 µM (inactive)"},
      {"measurement": "EC50", "setting": "cells", "value": "> 29.9 µM (inactive)"},
      {"measurement": "IC50", "setting": "Galanin receptor type 3", "value": "0.0154 µM (active)"},
      {"measurement": "IC50", "setting": "[14]", "value": "> 80 µM (inactive)"}
    ]}
  ]
}
